Results: patent publication US20210369720A1, “SYNERGISTIC COMPOSITION HAVING NEUROPROTECTIVE PROPERTIES AND METHODS OF USE THEREOF” (Rutgers, The State University of New Jersey, priority 2018, published 2021)

Columns and labels:
Syn^Tg mice [1] = assay: Wire Hang test, Syn^Tg mice; assay type: in vivo; conditions: EHT 12 mg/kg/day in chow and/or caffeine 50 mg/kg/day in drinking water from weaning until six months of age, vs untreated Syn^Tg mice
Text: (§1) Thy1-α-synuclein transgenic mice (Syn^Tg) on BDF1 background overexpressing human wild-type α-synuclein under the control of the Thy1 promoter were maintained by mating heterozygous transgenic females with WT BDF1 males (Rockenstein E, et al. (2002) Differential neuropathological alterations in transgenic mice expressing alpha-synuclein from the platelet-derived growth factor and Thy-1 promoters. J Neurosci Res 68(5):568-578). BDF1 mice (mixed C57BL/6-DBA/2) were generated every three months by mating female C57BL/6 (The Jackson Laboratory) and male DBA/2 mice (Charles River). Experiments were performed with male transgenic mice and their WT littermates. […] Wild-type littermates received regular water and control chow. […] At two months of age, mice were inoculated with α-Syn PFF unilaterally in the striatum. These treatments continued throughout the experiment until animals were sacrificed. Mice were weighed and their food and water intake was quantified weekly. Animals were housed 2-5/cage in an AAALAC approved facility in a temperature- and humidity-controlled environment under a 12-hour light/dark cycle and were maintained on a diet of lab chow and water ad libitum. […]

Syn^Tg mice [2] = assay: Nesting behavior, Syn^Tg mice; assay type: in vivo; conditions: EHT 12 mg/kg/day in chow and/or caffeine 50 mg/kg/day in drinking water from weaning until six months of age, vs untreated Syn^Tg mice
Text: as §1

[3] = tested on: α-Syn PFF inoculated WT mice; assay: Rotarod, α-Syn PFF inoculated WT mice; assay type: in vivo; conditions: EHT 12 mg/kg/day in diet and/or caffeine 50 mg/kg/day in drinking water from weaning, 6 months post-inoculation
Text: as §1

Iba-1 = assay: Immunohistochemical staining of Iba-1 in the striatum, α-Syn PFF inoculated WT mice; assay type: in vivo; conditions: EHT 12 mg/kg/day and/or caffeine 50 mg/kg/day, vs untreated α-Syn PFF inoculated group
Text: as §1

PP2A = assay: Western blot of PP2A methylation in SH-SY5Y cells challenged with α-Syn PFF; assay type: cell-based, Human; conditions: SH-SY5Y cells challenged with mouse α-Syn PFF for 7 days; caffeine and/or EHT added to the medium
Description: Human neuroblastoma SH-SY5Y cells were cultured in DMEM-F12 with 10% FBS. At 50% confluency, cells were treated with 1 gg/ml mouse α-Syn PFF in DMEM-F12 with 1% FBS for 7 days. Medium was refreshed every 3 days. Cell harvesting was done with 2% SDS in PBS supplemented with protease inhibitor (Millipore) and phosphatase inhibitor (Sigma-Aldrich). Lysates were sonicated and boiled at 95° C. for 5 minutes. Protein concentration was determined by bicinchonic acid (BCA) method (Pierce), equal amount of protein was separated on 5-20% SDS-PAGE gel (Genescript) and transferred to nitrocellulose or PVDF membrane (Biorad). Following transfer, membranes were blocked for 1 hour at room temperature in blocking buffer (Li-Cor) or 5% (w/v) BSA/TBS-Tween 0.1% (v/v). Primary antibodies were diluted in blocking buffer or 5% (w/v) BSA/TBS-Tween 0.1% (v/v) and incubated with the membranes at 4° C. overnight. Membranes were washed three times in TBS-Tween and incubated in diluted IRDye 800CW or HRP conjugated secondary antibody for 1 hour at room temperature. Following washing, membranes were scanned by Li-Cor Odyssey CLx infrared imaging system or treated with the Western Lightning ECL-plus reagents (PerkinElmer) and exposed to autoradiography films (LabScientific).

## CCCCCCCCCCCCCCCCCCCC(=O)NCCc1c[nH]c2ccc(O)cc12 [EHT, eicosanoyl-5-hydroxytryptamide]
Syn^Tg mice [1]
  performance on the wire hang test: did so only on the Wire Hang test
Syn^Tg mice [2]
  nesting behavior: did not improve performance
[3]
  performance on the rotarod: improved performance
Iba-1
  microglial activation (Iba-1) in the contralateral striatum: only a partial effect that was statistically insignificant
  microglial activation (Iba-1) in the ipsilateral striatum: only a partial effect that was statistically insignificant
PP2A
  demethylated PP2A levels: partially reversed this trend
  methyl- to demethyl-PP2A ratio: not individually
  methylated PP2A levels: partially reversed this trend
